Measured values published in patent US20260265244A1, “HETEROCYCLIC COMPOUNDS AS STING ANTAGONISTS” (Boehringer Ingelheim International GmbH, priority 2022, published 2026).

Legend:
human STING WT (R232) = molecular target: T1, human STING WT (R232) (Homo sapiens, UniProt Q86WV6, H232R); assay: Human STING HTRF binding assay (competitive, Cisbio 64BDSTGPEG)
T1 construct: purchased Cisbio 64BDSTGPEG
Description: Binders to human STING WT (R232) were identified using a competitive HTRF assay format (Cisbio 64BDSTGPEG), which uses d2-labeled STING ligand, a 6His (SEQ ID NO: 2) tagged human STING protein, and an anti 6His (SEQ ID NO: 2) Cryptate-labeled antibody. Compounds compete with the STING ligand-d2 and thereby prevents FRET from occurring, which can be measured by an EnVision™ reader (PerkinElmer).
Assay method: Compounds were delivered as 10 mM DMSO solution, serially diluted by an Agilent Bravo Workstation and transferred to the 384 well assay plate (Perkin Elmer #6005359) using a Cybiwell dispenser. Typically, 8 concentrations were used with the highest concentration at 10 μM or 1 μM in the final assay volume followed by ~1:5 dilution steps. DMSO concentration was set to 1% in the final assay volume. The 384 well assay plate contained 20 test compounds and DMSO in column 23 and 24. A cGAMP standard dilution row was prepared according to the manufacturer and transferred to each assay plate. After transfer of compound solution or dilution buffer for negative (high) and positive (low) controls, 5 μl of the human STING protein (cyclic binding domain (residues 138-379) of the WT R232 human version, fused to a 6 His tag (SEQ ID NO: 2) at the Nter part; 1:50 dilution in detection buffer) were dispensed to all wells except of the positive control, which received detection buffer only. Plates were the centrifuged for 20 sec at 1000 rpm. After that, 10 μl of Anti-6His-Cryptate antibody/Sting ligand-d2 mix was added to all wells using a Multidrop combi dispenser, followed by another sec/1000 rpm centrifugation step. After an incubation of the plates for 180 min at room temperature, […] at […] (HTRF ratio) was measured using an Envison Reader (PerkinElmer).
Data evaluation and calculation: For data evaluation and calculation, HTRF ratios were calibrated using the cGAMP standard curve. After that, the measurement of the low control was set as 0% control and the measurement of the high control was set as 100% control. The IC50 values were calculated using the standard 4 parameter logistic regression formula. Calculation: [y=(a−d)/(1+(x/c)^b)+d], a=low value, d=high value; x=conc M; c=IC50 M; b=slope;

[1] = molecular target: T2, cGAMP binding domain of wild-type (GRR) human STING, residues 155-341 (Homo sapiens, UniProt Q86WV6, H232R); assay: Increase of stability of STING protein against thermal denaturation, Differential Scanning Fluorimetry (DSF)
T2 construct: His-TEV-hSTING (WT); TEV protease cleavage site (N); made in house; host or cells: E. coli BL21 DE3
T2 sequence (Q86WV6 with tags, fused parts or gaps H232R): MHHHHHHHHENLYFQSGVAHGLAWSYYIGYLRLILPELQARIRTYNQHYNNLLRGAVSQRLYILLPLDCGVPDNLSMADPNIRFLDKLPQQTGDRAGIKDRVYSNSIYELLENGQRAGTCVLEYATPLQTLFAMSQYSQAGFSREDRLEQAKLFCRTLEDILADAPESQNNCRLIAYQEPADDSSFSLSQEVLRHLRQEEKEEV
Description: Dye fluorescence is quenched in aqueous environment and increases upon association of the dye with the hydrophobic parts of the unfolding protein. […] The inflection point of the curve represents the “melting” temperature of the protein (Tm) which is calculated numerically using the Boltzmann equation.
Method: The thermal stability of the STING protein was measured using a specific expression construct of the cGAMP binding domain of wild-type (GRR) human STING comprising residues 155-341 and a N-terminal 8×His-tag (SEQ ID NO: 3) in assay buffer containing 20 mM Tris, 150 mM NaCl at pH7.5.
The assay uses Hard-Shell® PCR Plates 384-Well CLR/WHT (Catalog #HSP3805, BIO-RAD), Microseal® ‘B’ Adhesive Seals for PCR Plates (Catalog #MSB-1001, BIO-RAD) and was run on a CFX384 Real-Time System (Bio-Rad).
A DMSO stock solution of SYPRO orange (SIGMA S5692-500UL) was prepared.
Compound stock solutions (10 mM in DMSO) were diluted 1:2 in DMSO to an intermediate compound concentration of 5 mM and then further diluted 1:40 in assay buffer resulting in a compound concentration of 125 μM and 2.5% DMSO.
Fluorescent dye stock solution (5000×SYPRO Orange) was then mixed with target protein and buffer to a concentration of 15 uM Protein and 25×SYPRO Orange. 2 ul of this protein-dye-mixture was added to 8 ul compound solution. Final volume was 10 uL. 3-6 well positions were used as negative control (protein with 2% DMSO). The plates were prepared for duplicate measurement and centrifuged for 2 min at 1000 g. In the measurement, 160 cycles of 0.5° C. were used (temperature ramp 15 s/cycle, 15° C. to 95° C.).
Final Assay concentrations for compound characterization were as follows: 100 uM compound, 3 uM target protein, 5×SYPRO Orange, 2% DMSO in 10 ul. All dispensing steps were performed using a HamiltonStar pipetting robot (Hamilton).
Dissociation curves were processed in Bio-Rad CFX Manager. Peak type was set to “negative”. Compound codes for screen were assigned in the plate layout.
Two replicates of TM measurements were averaged, and the standard deviation was calculated. In cases of SD>1.5° C. the measurement was repeated.
The melting point (Tm) obtained for STING protein alone was subtracted from T obtained for protein incubated with ligand to generate ΔTm values.
Protein production and purification: The protein used for the biophysical experiments was a recombinant human STING protein comprising its cytosolic ectodomain. A codon optimized DNA sequence (for expression in Escherichia coli) encoding amino acid residues 155 to 341 (Swiss Prot Q86WV6) of human STING (WT) was synthesized by GeneArt (Regensburg, Germany) and inserted into a pET17b E. coli expression vector. The protein construct encodes an N-terminal 8×His-tag (SEQ ID NO: 3) followed by tobacco etch virus protease (TEV) cleavage site and the above STING gene sequence. The resulting protein sequence for the used STING variant is listed below:
For expression of recombinant human STING above construct was transformed into E. coli BL21 DE3 strain and grown in shake flasks in LB-medium at 37° C. Expression was induced by addition of isopropyl β-D-1-thiogalactopyranoside to a final concentration of 1 mM and cultures shaken overnight. Cell pellets were centrifuged and stored at −70° C. until further use. Protein was purified by cell thawing in lysis buffer (20 mM TRIS-HCl, pH 8, 300 mM NaCl, 2 mM mercaptoethanol, 20 mM imidazole, Complete Protease Inhibitor (Roche) and DNase (Roche)), followed by metal affinity purification using Ni-NTA resins and elution buffer consisting of 20 mM TRIS-HCl, pH 8, 300 mM NaCl, 2 mM mercaptoethanol, 300 mM imidazole and size exclusion chromatography in running buffer (20 mM TRIS-HCl, pH 8, 100 mM NaCl, 2 mM DTT). The peak fraction was collected and concentrated to 2.5 mg/mL.

T1 sequence (Q86WV6 138-379 H232R): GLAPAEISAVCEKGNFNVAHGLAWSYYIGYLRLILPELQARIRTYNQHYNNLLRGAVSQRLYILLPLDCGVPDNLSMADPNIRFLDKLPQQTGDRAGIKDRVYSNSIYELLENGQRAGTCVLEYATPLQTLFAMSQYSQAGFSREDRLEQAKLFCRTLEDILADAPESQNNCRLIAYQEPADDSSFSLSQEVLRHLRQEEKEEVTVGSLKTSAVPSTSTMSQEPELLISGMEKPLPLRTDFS

| Compound | IC50 (human STING WT (R232)) | DSF [1] |
| --- | --- | --- |
| CC(C)c1nc2nn(C)cc2cc1-c1nc(-c2cccc3nn(C[S@@+]([O-])c4ccccc4)cc23)c(C2CC2)n1C [Example 22, 2-{[(S)-benzenesulfinyl]methyl}-4-{5-cyclopropyl-1-methyl-2-[2-methyl-6-(propan-2-yl)-2H-pyrazolo[3,4-b]pyridin-5-yl]-1H-imidazol-4-yl}-2H-indazole] | 20 nM | 33 K |
| Cc1c(C(C)C)c(-c2cccc3nn(C[C@H](O)c4ccccc4)cc23)nn1-c1cc2cn(C)nc2nc1OC(C)C [Example 23, (1R)-2-(4-{5-methyl-1-[2-methyl-6-(propan-2-yloxy)-2H-pyrazolo[3,4-b]pyridin-5-yl]-4-(propan-2-yl)-1H-pyrazol-3-yl}-2H-indazol-2-yl)-1-phenylethan-1-ol] | 18.8 nM | 25 K |
| Cc1ccc([C@@H](O)Cn2cc3c(-c4nc(-c5cc6cn(C)nc6nc5C(C)C)n(C)c4C4CC4)cccc3n2)cc1 [Example 25, (1R)-2-(4-{5-cyclopropyl-1-methyl-2-[2-methyl-6-(propan-2-yl)-2H-pyrazolo[3,4-b]pyridin-5-yl]-1H-imidazol-4-yl}-2H-indazol-2-yl)-1-(4-methylphenyl)ethan-1-ol] | 18.1 nM | 30 K |
| Cc1c(C(C)C)c(-c2cccc3nn(C[C@H](O)c4ccccc4)cc23)nn1-c1cc2cn(C)nc2nc1CN1CCOCC1 [Example 26, (1R)-2-[4-(5-methyl-1-{2-methyl-6-[(morpholin-4-yl)methyl]-2H-pyrazolo[3,4-b]pyridin-5-yl}-4-(propan-2-yl)-1H-pyrazol-3-yl)-2H-indazol-2-yl]-1-phenylethan-1-ol] | 42.8 nM | 26 K |
| Cn1c(-c2cc3cn(CCCN4CCCC4=O)nc3nc2C2CC2)nc(-c2cccc3nn(C[C@H](O)c4ccccc4)cc23)c1C1CC1 [Example 28, 1-{3-[6-cyclopropyl-5-(5-cyclopropyl-4-{2-[(2R)-2-hydroxy-2-phenylethyl]-2H-indazol-4-yl}-1-methyl-1H-imidazol-2-yl)-2H-pyrazolo[3,4-b]pyridin-2-yl]propyl}pyrrolidin-2-one] | 8.4 nM | 31 K |
| Cc1c(C2CC2)c(-c2cccc3nn(C[C@H](O)c4ccccc4)cc23)nn1-c1cc2cn(C)nc2nc1C1CC1 [Example 29, (1R)-2-[4-(4-cyclopropyl-1-{6-cyclopropyl-2-methyl-2H-pyrazolo[3,4-b]pyridin-5-yl}-5-methyl-1H-pyrazol-3-yl)-2H-indazol-2-yl]-1-phenylethan-1-ol] | 2.8 nM | 29 K |

Second part, the compound after the results:

| IC50 (human STING WT (R232)) | DSF [1] | Compound |
| --- | --- | --- |
| 14.6 nM | 28 K | Cc1nc2nn(C(C)C)cc2cc1-n1nc(-c2cccc3nn(C[C@H](O)c4ccccc4)cc23)c(C(C)C)c1C [Example 18, (1R)-2-(4-{5-methyl-1-[6-methyl-2-(propan-2-yl)-2H-pyrazolo[3,4-b]pyridin-5-yl]-4-(propan-2-yl)-1H-pyrazol-3-yl}-2H-indazol-2-yl)-1-phenylethan-1-ol] |
| 16.1 nM | 29 K | Cc1c(C(C)C)c(-c2cccc3nn(C[C@H](O)c4ccccc4)cc23)nn1-c1cc2cn(C)nc2nc1C(C)O (stereo partly drawn) [Example 19, (1R)-2-(4-{1-[6-(1-hydroxyethyl)-2-methyl-2H-pyrazolo[3,4-b]pyridin-5-yl]-5-methyl-4-(propan-2-yl)-1H-pyrazol-3-yl}-2H-indazol-2-yl)-1-phenylethan-1-ol] |
| 17.4 nM | 27 K | CSc1nc2nn(C)cc2cc1-n1nc(-c2cccc3nn(C[C@H](O)c4ccccc4)cc23)c(C(C)C)c1C [Example 20, (1R)-2-(4-{5-methyl-1-[2-methyl-6-(methylsulfanyl)-2H-pyrazolo[3,4-b]pyridin-5-yl]-4-(propan-2-yl)-1H-pyrazol-3-yl}-2H-indazol-2-yl)-1-phenylethan-1-ol] |
| 4.9 nM | 30 K | Cc1nc2nn(CCCN3CCCC3=O)cc2cc1-n1nc(-c2cccc3nn(C[C@H](O)c4ccccc4)cc23)c(C(C)C)c1C [Example 21, 1-{3-[5-(3-{2-[(2R)-2-hydroxy-2-phenylethyl]-2H-indazol-4-yl}-5-methyl-4-(propan-2-yl)-1H-pyrazol-1-yl)-6-methyl-2H-pyrazolo[3,4-b]pyridin-2-yl]propyl}pyrrolidin-2-one] |
| 4.9 nM | 30 K | Cc1nc2nn(Cc3cnn(C)c3)cc2cc1-n1nc(-c2cccc3nn(C[C@H](O)c4ccccc4)cc23)c(C(C)C)c1C [Example 24, (1R)-2-[4-(5-methyl-1-{6-methyl-2-[(1-methyl-1H-pyrazol-4-yl)methyl]-2H-pyrazolo[3,4-b]pyridin-5-yl}-4-(propan-2-yl)-1H-pyrazol-3-yl)-2H-indazol-2-yl]-1-phenylethan-1-ol] |
| 14.5 nM | 25 K | Cc1nc2nn(C)cc2cc1-n1nc(-c2cccc3nn(C[C@H](OCF)c4ccccc4)cc23)c(C(C)C)c1C [Example 27, 4-(1-{2,6-dimethyl-2H-pyrazolo[3,4-b]pyridin-5-yl}-5-methyl-4-(propan-2-yl)-1H-pyrazol-3-yl)-2-[(2R)-2-(fluoromethoxy)-2-phenylethyl]-2H-indazole] |
| 18.2 nM | 25 K | CCO[C@@H](Cn1cc2c(-c3nn(-c4cc5cn(C)nc5nc4C)c(C)c3C(C)C)cccc2n1)c1ccccc1 [Example 30, 4-(1-{2,6-dimethyl-2H-pyrazolo[3,4-b]pyridin-5-yl}-5-methyl-4-(propan-2-yl)-1H-pyrazol-3-yl)-2-[(2R)-2-ethoxy-2-phenylethyl]-2H-indazole] |
| 8.6 nM | 28 K | Cc1nc2nn(CCCO)cc2cc1-n1nc(-c2cccc3nn(C[C@H](O)c4ccccc4)cc23)c(C(C)C)c1C [Example 32, 3-[5-(3-{2-[(2R)-2-hydroxy-2-phenylethyl]-2H-indazol-4-yl}-5-methyl-4-(propan-2-yl)-1H-pyrazol-1-yl)-6-methyl-2H-pyrazolo[3,4-b]pyridin-2-yl]propan-1-ol] |
